Reference: ChEMBL document CHEMBL1201862, “PubChem BioAssay data set” (2004)
The source made the active and inactive calls.

What was measured:
[1] = biological target: DNA dC->dU-editing enzyme APOBEC-3A (Homo sapiens, UniProt P31941); assay: APOBEC3A DNA deaminase inhibitors, dose response, biochemical (AID 504722); format: functional
[2] = biological target: DNA dC->dU-editing enzyme APOBEC-3G (Homo sapiens, UniProt Q9HC16); assay: Dose Response confirmation of small molecule APOBEC3G DNA Deaminase Inhibitors via a fluorescence-based single-stranded DNA deaminase assay. [Related pubchem assays (depositor defined):AID493012, AID493028]; format: functional
[3] = biological target: T1, Apoptotic protease-activating factor 1 (Homo sapiens, UniProt O14727); assay: activation of Apaf-1 mediated apoptosis – fluorescent, uHTS hits, dose response (AID 588554); format: functional
T1 sequence (O14727 whole entry): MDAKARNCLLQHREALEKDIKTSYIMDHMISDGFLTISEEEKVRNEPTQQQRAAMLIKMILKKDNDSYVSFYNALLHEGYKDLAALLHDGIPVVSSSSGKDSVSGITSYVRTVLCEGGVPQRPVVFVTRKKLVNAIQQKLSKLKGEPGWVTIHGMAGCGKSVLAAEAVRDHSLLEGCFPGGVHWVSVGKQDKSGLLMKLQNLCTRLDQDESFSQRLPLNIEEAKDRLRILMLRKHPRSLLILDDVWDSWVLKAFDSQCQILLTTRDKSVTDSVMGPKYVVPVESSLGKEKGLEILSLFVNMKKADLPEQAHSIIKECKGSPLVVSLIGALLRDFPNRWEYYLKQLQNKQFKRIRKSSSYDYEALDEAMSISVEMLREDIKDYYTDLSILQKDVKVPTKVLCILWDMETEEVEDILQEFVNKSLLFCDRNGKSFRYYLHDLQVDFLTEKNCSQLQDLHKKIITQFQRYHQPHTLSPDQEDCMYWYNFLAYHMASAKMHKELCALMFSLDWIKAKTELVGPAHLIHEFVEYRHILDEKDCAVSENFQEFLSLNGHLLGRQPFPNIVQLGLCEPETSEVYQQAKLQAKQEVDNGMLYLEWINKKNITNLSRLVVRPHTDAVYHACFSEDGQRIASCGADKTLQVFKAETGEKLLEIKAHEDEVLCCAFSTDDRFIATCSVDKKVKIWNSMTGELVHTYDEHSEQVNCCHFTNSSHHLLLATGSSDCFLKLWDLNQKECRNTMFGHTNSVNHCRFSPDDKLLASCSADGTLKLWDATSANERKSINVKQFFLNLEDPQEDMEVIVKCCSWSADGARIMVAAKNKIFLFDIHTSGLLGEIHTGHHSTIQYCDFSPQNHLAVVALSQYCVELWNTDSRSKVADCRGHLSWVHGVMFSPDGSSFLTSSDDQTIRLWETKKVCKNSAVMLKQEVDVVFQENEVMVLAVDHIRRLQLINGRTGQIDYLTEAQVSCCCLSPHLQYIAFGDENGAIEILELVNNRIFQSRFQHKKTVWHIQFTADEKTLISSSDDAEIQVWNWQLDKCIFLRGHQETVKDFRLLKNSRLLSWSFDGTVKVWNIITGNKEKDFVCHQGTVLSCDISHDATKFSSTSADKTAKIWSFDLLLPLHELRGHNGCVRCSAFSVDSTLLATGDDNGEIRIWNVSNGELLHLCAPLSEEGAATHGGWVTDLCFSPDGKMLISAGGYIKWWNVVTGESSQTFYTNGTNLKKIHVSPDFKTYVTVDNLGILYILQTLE

[4] = biological target: T2, Carboxy-terminal domain RNA polymerase II polypeptide A small phosphatase 1 (Homo sapiens, UniProt Q9GZU7); assay: inhibitors of CTDSP1, concentration-response testing, biochemical assay, absorbance-based, actives from ultra-high-throughput screening (AID 540297); format: functional
T2 sequence (Q9GZU7 whole entry): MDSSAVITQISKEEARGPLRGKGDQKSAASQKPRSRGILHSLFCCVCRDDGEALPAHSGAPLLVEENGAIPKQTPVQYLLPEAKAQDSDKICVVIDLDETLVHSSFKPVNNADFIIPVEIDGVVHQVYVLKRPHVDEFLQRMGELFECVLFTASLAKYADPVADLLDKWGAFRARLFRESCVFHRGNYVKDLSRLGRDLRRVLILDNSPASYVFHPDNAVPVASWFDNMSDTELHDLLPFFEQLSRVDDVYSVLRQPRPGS

[5] = biological target: DNA (cytosine-5)-methyltransferase 1 (Homo sapiens, UniProt P26358); assay: DNMT1 methyltransferase inhibitors, confirmation, biochemical, fluorescent molecular beacon (AID 602386); format: functional
[6] = biological target: T3, Small ubiquitin-related modifier 1 (Homo sapiens, UniProt P63165); assay: inhibitors of SUMO1 peptide binding, dose response, biochemical, fluorescence polarization, uHTS hits (AID 624382); format: functional; conditions: read-out: IC50_Mean
[7] = biological target: T3, Small ubiquitin-related modifier 1; assay: inhibitors of SUMO1 partner interactions, dose response, biochemical, FRET (AID 624383); format: functional; conditions: read-out: IC50_Mean
[8] = Luminescence Cell-Based Dose Confirmation HTS to Identify Activators of 5'UTR Stem-Loop Driven Alpha-Synuclein mRNA Translation in H4 Neuroglioblastoma Cells. [Related pubchem assays: 1829 (Project Summary), 1814 (Primary HTS)]; format: functional
[9] = Luminescence Cell-Based Dose Response HTS to Identify Activators of Luciferase Translation or Activity in H4 […] Cells. [Related pubchem assays: 1829 (Project Summary), 1814 (Primary HTS)]; format: functional
cells [10] = format: functional, cell-based
H4 = assay: Luminescence Cell-Based Dose Response HTS to Identify Activators of 5'UTR Stem-Loop Driven Prion Protein mRNA Translation in H4 Neuroglioblastoma Cells. [Related pubchem assays: 1829 (Project Summary), 1814 (Primary HTS)]; format: functional; conditions: Homo sapiens
cells [11] = format: functional, cell-based; remark: listed apart in the source
[12] = Luminescence Cell-Based Dose Retest to Confirm Inhibitors of Cancer Stem Cells. [Related pubchem assays (depositor defined):AID2717, AID2721]; format: functional; conditions: Homo sapiens
[13] = cytotoxicity in HMLE control line with eGFP shRNA, dose response, counter-screen for HMLE_sh_ECad selective toxicity project, cell-based, HMLE_sh_eGFP, luminescence (AID 463074); format: functional, Homo sapiens;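 note: HMLE human mammary epithelial cells expressing control shRNA against eGFP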
Beta-galactosidase = Beta-galactosidase (Escherichia coli, UniProt Q8VNN2); assay: PubChem AID 485352; format: functional
[14] = biological target: Type-1 angiotensin II receptor (Homo sapiens, UniProt P30556); assay: AT1 receptor antagonists, dose response, selectivity assay for APJ receptor antagonist project, cell-based, uHTS hits (AID 463214); format: functional;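 note: antagonist potency against angiotensin II stimulated AT1 response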
Sequence of Type-1 angiotensin II receptor (P30556 whole entry): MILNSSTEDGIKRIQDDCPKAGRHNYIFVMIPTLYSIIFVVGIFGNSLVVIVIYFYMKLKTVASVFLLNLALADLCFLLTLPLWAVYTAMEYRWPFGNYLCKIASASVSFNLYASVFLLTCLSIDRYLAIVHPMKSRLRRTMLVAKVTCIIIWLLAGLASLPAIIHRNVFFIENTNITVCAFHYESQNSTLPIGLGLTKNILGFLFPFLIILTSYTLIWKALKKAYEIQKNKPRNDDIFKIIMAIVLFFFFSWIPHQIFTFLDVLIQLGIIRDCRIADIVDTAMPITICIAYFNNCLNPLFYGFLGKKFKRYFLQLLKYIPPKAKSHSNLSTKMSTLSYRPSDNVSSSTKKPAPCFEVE

T3 sequence (P63165 whole entry): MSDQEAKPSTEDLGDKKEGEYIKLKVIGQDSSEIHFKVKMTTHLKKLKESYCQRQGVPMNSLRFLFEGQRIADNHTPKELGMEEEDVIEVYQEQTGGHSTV
Sequence of DNA dC->dU-editing enzyme APOBEC-3G (Q9HC16 whole entry): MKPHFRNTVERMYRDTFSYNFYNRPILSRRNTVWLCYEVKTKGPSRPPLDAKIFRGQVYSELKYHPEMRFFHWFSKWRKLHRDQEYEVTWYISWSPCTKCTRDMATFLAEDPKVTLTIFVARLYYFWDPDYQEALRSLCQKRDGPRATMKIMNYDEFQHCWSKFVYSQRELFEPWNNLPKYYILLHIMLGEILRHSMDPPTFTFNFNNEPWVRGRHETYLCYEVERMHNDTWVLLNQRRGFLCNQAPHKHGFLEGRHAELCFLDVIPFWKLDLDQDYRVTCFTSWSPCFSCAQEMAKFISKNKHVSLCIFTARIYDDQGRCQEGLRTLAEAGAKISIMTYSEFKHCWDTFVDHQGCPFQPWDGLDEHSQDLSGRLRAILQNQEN
Sequence of DNA dC->dU-editing enzyme APOBEC-3A (P31941 whole entry): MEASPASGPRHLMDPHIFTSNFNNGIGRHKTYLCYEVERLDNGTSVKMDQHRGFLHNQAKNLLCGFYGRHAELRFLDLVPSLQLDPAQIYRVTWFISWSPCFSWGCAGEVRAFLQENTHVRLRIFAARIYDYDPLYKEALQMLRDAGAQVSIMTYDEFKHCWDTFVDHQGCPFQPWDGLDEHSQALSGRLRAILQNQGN
Sequence of DNA (cytosine-5)-methyltransferase 1 (P26358 whole entry): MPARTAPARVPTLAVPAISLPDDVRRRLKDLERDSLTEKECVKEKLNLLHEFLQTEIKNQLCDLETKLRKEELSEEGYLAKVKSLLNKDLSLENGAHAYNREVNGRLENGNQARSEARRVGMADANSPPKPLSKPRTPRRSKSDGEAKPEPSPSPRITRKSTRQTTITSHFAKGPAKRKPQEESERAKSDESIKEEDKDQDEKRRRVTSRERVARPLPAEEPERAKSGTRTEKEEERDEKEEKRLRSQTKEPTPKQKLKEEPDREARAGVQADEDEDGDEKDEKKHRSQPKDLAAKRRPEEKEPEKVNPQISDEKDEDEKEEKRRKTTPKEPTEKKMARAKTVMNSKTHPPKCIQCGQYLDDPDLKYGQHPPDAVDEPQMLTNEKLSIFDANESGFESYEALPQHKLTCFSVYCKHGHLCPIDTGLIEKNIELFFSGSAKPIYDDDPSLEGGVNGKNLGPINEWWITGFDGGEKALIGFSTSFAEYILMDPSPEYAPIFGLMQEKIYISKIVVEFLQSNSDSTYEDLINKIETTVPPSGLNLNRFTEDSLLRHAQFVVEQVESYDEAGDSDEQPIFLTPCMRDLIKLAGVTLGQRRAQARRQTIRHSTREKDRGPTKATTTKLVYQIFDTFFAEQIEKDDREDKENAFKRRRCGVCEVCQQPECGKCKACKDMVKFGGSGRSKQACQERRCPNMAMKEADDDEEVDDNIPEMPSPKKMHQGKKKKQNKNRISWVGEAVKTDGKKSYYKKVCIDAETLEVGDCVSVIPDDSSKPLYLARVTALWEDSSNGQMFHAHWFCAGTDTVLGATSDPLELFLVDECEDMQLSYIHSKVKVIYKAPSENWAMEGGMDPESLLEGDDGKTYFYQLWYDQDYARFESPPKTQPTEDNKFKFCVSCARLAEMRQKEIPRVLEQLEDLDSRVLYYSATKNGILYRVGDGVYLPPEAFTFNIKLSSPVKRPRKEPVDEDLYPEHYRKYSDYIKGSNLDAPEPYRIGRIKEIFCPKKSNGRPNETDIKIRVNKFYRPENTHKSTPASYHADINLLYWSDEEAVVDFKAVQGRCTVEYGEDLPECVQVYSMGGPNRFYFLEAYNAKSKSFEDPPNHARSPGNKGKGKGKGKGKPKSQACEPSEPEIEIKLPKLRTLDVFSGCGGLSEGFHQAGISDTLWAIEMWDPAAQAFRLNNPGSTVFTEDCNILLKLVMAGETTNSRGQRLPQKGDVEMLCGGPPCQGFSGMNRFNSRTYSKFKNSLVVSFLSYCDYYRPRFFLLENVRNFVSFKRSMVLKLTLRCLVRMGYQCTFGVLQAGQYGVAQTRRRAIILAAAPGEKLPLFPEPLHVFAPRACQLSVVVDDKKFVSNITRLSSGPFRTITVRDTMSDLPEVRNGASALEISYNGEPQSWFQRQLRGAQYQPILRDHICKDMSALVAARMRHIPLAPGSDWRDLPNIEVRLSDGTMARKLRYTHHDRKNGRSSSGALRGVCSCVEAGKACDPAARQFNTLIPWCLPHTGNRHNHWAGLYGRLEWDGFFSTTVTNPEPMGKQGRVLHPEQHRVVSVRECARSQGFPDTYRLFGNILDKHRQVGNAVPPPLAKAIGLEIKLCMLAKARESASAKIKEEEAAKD
Sequence of Beta-galactosidase (Q8VNN2 whole entry): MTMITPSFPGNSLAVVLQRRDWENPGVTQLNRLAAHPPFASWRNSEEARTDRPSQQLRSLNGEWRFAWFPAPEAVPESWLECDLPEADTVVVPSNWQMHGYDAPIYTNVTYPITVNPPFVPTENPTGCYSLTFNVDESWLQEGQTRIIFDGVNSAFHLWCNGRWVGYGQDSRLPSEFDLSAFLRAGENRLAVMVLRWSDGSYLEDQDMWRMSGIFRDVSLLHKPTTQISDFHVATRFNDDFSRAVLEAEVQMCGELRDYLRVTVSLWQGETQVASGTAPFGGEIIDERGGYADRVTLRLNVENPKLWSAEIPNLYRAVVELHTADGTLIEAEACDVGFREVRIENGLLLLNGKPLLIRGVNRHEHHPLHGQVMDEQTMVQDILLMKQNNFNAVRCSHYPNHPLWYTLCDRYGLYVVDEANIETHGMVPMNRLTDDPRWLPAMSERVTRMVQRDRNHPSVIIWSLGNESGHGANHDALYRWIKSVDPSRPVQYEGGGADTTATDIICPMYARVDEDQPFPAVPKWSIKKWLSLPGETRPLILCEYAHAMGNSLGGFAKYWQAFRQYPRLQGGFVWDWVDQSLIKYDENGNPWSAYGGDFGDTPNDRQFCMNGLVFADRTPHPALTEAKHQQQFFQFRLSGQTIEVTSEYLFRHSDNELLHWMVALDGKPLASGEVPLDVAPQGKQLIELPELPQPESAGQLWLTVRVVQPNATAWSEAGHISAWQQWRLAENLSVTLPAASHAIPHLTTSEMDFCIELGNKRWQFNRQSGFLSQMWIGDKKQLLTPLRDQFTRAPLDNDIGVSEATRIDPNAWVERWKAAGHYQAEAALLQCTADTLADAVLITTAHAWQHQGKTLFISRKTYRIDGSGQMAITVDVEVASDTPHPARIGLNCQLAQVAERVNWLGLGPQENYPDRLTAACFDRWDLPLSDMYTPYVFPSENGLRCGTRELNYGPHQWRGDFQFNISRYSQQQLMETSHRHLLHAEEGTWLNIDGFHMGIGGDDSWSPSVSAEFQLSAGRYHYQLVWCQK

With `C=C(C)C(=O)Nc1cccc(C2=NOC3(C2)C[C@@H](C(N)=O)N(C(=O)/C=C/CC)C3)c1` (stereo partly specified) the IC50 [1] was > 100 µM (inactive), the IC50 [2] was 6.06 µM (active) and the EC50 [3] was 4.43 µM (active). For the same compound, the IC50 [4] was 1.73 µM (active), the IC50 [5] was 5.96 µM (active) and the IC50 [6] was > 66.6 µM (inactive). The IC50 [7] was 3.25 µM (active).

In the case of `CC(C)c1ccc(NC(=O)CCc2ccccc2)cc1`, the EC50 [8] is reported as 7.33 µM (active), the EC50 [9] is reported as 52.1 µM (active) and the EC50 (cells [10]) is reported as > 350 µM (not active). The EC50 (H4) was > 120 µM (inconclusive), the EC50 (cells [11]) was > 350 µM (not active) and the AC50 [12] was 6.63 µM (active). For the same compound, the AC50 [13] was 40.5 µM (active).

In the case of `O=C(CCC(=O)OCC(=O)c1ccc(Cl)cc1Cl)Nc1cccc2cccnc12`, the EC50 (Beta-galactosidase) is reported as > 40 µM (inactive) and the IC50 [14] is reported as > 40 µM (not active).
